Assays:
DPP-IV [1] = biological target: T1, DPP-IV (Homo sapiens, UniProt P27487); details: background art, JP Patent Publication (Kokai) No. 2018-118939 A; cited from earlier work
DPP-IV [2] = biological target: T1, DPP-IV; assay: DPP (IV) Inhibitor Screening Assay Kit (Cayman Chemical), fluorescence; format: biochemical; details: for DPP-IV inhibitory activity (inhibition rate, FIG. 1): comparison of various catechins, 37° C., 30 minutes
Description: In this Example, various catechins including a methylated catechin were used to examine their DPP-IV inhibitory activity. Regarding the DPP-IV inhibitory activity, a commercially available DPP (IV) Inhibitor Screening Assay Kit (manufactured by Cayman Chemical) was used. Catechins tested in this Example were epicatechin-3-O-gallate (ECG), epicatechin (EC), epigallocatechin(EGC), (−)-epigallocatechin gallate (EGCG), and (−)-epigallocatechin 3-(3″-O-methyl)gallate (EGCG3″Me). These catechins were purchased from Nagara Science Co., Ltd. In addition, caffeine was purchased from Sigma-Aldrich, and L-theanine was purchased from FUJIFILM Wako Pure Chemical Corporation for testing.
In the experiment, first, a sample (5 μL), buffer (15 μL), DPP-IV (5 μL), and a substrate (25 μL) were added to a 96-well plate and incubated at 37° C. for 30 minutes. Then, the fluorescence intensity was measured by using a fluorometer (Envision 2104 Multilaber Reader, manufactured by Perkin Elmer) (excitation wavelength: 355 nm; fluorescence wavelength: 450 nm).
Next, the fluorescence intensity measured with the addition of ultrapure water (5 μL), buffer (20 μL), and a substrate (25 μL) was subtracted as a background from the fluorescence intensity of each sample. The fluorescence intensity measured with the addition of ultrapure water (5 μL), buffer (15 μL), DPP-IV (5 μL), and a substrate (25 μL) was defined as 100% initial activity.
The inhibition rate was calculated by subtracting the fluorescence intensity of the sample from the fluorescence intensity of 100% initial activity, then dividing the difference by the fluorescence intensity of 100% initial activity, and finally multiplying the quotient by 100. As a positive control, sitagliptin included in the kit was used.
Specifically, in the experiment described above, the concentration of EGCG3″Me was set to 1 μM, 5 μM, 10 μM, 50 μM, 100 μM or 200 μM, and the DPP-IV inhibitory activity was measured using the DPP (IV) Inhibitor Screening Assay Kit.

T1 sequence (P27487 whole entry): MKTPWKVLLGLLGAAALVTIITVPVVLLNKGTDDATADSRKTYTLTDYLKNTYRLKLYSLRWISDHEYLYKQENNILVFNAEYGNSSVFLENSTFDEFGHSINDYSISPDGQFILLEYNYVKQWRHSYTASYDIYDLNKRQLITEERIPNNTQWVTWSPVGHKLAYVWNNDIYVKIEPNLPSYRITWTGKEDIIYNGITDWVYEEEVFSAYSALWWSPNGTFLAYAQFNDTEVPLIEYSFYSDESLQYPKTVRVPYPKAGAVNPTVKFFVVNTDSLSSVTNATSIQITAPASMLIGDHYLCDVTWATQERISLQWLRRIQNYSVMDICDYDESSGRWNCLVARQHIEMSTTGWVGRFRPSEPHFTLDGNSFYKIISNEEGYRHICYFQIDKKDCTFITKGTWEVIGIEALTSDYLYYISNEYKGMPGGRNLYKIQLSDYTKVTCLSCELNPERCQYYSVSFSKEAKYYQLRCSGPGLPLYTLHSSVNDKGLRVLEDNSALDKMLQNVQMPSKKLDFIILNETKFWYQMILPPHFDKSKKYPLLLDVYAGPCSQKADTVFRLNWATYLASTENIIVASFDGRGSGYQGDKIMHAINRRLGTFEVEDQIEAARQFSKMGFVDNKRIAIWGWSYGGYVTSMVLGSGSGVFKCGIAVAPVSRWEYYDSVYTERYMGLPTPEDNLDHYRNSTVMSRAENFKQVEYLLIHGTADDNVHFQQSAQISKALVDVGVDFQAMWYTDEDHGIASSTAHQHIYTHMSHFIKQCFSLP

## O=C(O[C@@H]1Cc2c(O)cc(O)cc2O[C@@H]1c1ccc(O)c(O)c1)c1cc(O)c(O)c(O)c1 [ECg, epicatechin gallate]
DPP-IV [1]
  DPP-IV inhibitory effect: have the DPP-IV inhibitory effect

## Oc1cc(O)c2c(c1)O[C@H](c1cc(O)c(O)c(O)c1)[C@H](O)C2 [EGC, epigallocatechin]
DPP-IV [1]
  DPP-IV inhibitory effect: have the DPP-IV inhibitory effect

## Oc1cc(O)c2c(c1)O[C@H](c1cc(O)c(O)c(O)c1)[C@@H](O)C2 [GC, gallocatechin]
DPP-IV [1]
  DPP-IV inhibitory effect: have the DPP-IV inhibitory effect

## O=C(O[C@@H]1Cc2c(O)cc(O)cc2O[C@H]1c1cc(O)c(O)c(O)c1)c1cc(O)c(O)c(O)c1 [GCg, gallocatechin gallate]
DPP-IV [1]
  DPP-IV inhibitory effect: have the DPP-IV inhibitory effect

## (−)-epigallocatechin gallate [EGCG]
DPP-IV [2]
  DPP-IV inhibitory activity (inhibition rate, FIG. 1): excellent DPP-IV inhibitory activity
DPP-IV [1]
  DPP-IV inhibitory effect: have the DPP-IV inhibitory effect

## catechin gallate [Cg]
DPP-IV [1]
  DPP-IV inhibitory effect: have the DPP-IV inhibitory effect

## epigallocatechin-3-O-(3-O-methyl)gallate [EGCG3″Me]
DPP-IV [2]; 1 μM, 5 μM, 10 μM, 50 μM, 100 μM or 200 μM
  relationship between concentration and DPP-IV inhibitory activity (FIG. 2): tends to increase as the concentration increases
DPP-IV [2]
  DPP-IV inhibitory activity (inhibition rate, FIG. 1): particularly excellent DPP-IV inhibitory activity
DPP-IV [2]; when concentration exceeds 50 μM
  DPP-IV inhibitory activity (FIG. 2): extremely excellent DPP-IV inhibitory activity
